A short description of data set [1]: Stability of ethambutol in the presence of isoniazid. Format: physicochemical. The text has this: 765/Del/2003. However, a disadvantage associated therewith is that due to its unstability properties, ethambutol would degrade.
The test system of a further data set is M. tuberculosis. To be noted: cited from earlier work.

≈ marks a conversion by molar mass, not a printed value.

For the compound `CC[C@@H](CO)NCCN[C@@H](CC)CO` [ethambutol], the “stability in the presence of isoniazid” value in data set [1] was “highly unstable”. Besides, the “minimum inhibitory concentration (MIC)” value in the data set on M. tuberculosis was 1.5 µg/mL (≈ 7.34 µM).

Values taken from US20100204243A1, “Process for the Preparation of Poly DL-Lactide-Co-Glycolide Nanoparticles Having Antitubercular Drugs Encapsulated Therein” (priority 2005, published 2010).
